Results: a melting point compilation (Tetko et al.; mined from patent text by program, amines drawn as free bases though some values may be those of a salt)

| Compound | melting point [°C] |
| --- | --- |
| COc1cccc2c1C(O)c1ccccc1C21CCN(C)CC1 (stereo not given) | 149 to 151 |
| COc1cc(OC)cc(N2CCN(C(=O)N(C)c3nc4ccccc4nc3OC)CC2)c1 | 143 to 144 |
| CS(=O)(=O)c1ccc(C(=O)c2cc(Cl)ccc2N)cc1 | 176 to 177 |
| N#Cc1cccc(CCn2ncc3c(=O)n(-c4ccccc4)c4ncccc4c32)c1 | 220 to 224 |
| CCC(CC)C(NC(=O)c1ccc(Cl)cc1)NC(=NC#N)Nc1cccnc1 (stereo not given) | 185 to 187 |
| O=C(Nc1cc(OCCCON=Cc2ccc(-c3ccccc3)cc2)ccc1C(=O)O)c1ccc(OC(F)(F)F)cc1 | 188 |
| Cc1sc2c(c1C)C(c1ccc(Cl)cc1)=NC(CC(=O)Nc1ccncc1)c1nnc(C)n1-2 (stereo not given) | 237 to 239 |
| O=c1c2cc(Br)ccc2nc(CSc2ncnc3[nH]cnc23)n1-c1ccccc1Cl | 212 to 242 |
| CC1(C)OC(=O)c2c(O)cc(OCc3ccccc3)cc2O1 | 80 |
| O=C(O)c1coc(Cl)c1 | 124 to 125 |
| Cc1nc(N2CCC(NCCC3CC3)C2=O)sc1C(=O)NCc1ccc(F)cc1 (stereo not given) | 151 to 152 |
| Cc1nc(NCc2ccccn2)[nH]c(=O)c1CCO | 185 |
| CC(C)(C)c1ccc(OCC(O)CN2CCC3(CC2)CSC2=C(O3)c3cc(F)ccc3C(=O)C2=O)cc1 (stereo not given) | 114 to 116 |
| CCCCCCNC1=NS(=O)(=O)c2cc(Cl)c(Cl)cc2N1 | 282 to 286 |
| O=C1N=c2ccc(NCCCc3ccccc3)cc2=N1 | 205 to 206 |
| CCCC(=O)c1ccc(OCC(=O)OC)cc1 | 78 to 82 |
| CNCCCN(C)C(=O)[C@@H]1CCCN1S(=O)(=O)c1ccc(Cl)c(COc2cccc3c(-n4ccnc4)cc(C)nc23)c1Cl | 125 |
| Cc1nc(-c2ccc3c(c2)c(-c2cc4cccnc4[nH]2)cn3C)no1 | 290 to 294 |
| O=C(Cc1ccccc1)NCC(O)c1ccccc1 (stereo not given) | 97 to 99 |
| COc1cc(OC)nc(-n2nc(C)n(N)c2=O)n1 | 219 |
| CN1CCN(c2ccc(C(=O)N[C@H]3CC[C@H](CCN4CCN(c5nccc6c5CCO6)CC4)CC3)cc2)CC1 | 236 |

| Compound | melting point [°C] |
| --- | --- |
| CCCOc1c(-c2ccccc2)nn(C)c1-c1ccccc1 | 56 to 57 |
| CCCc1nn(C)c2c(=O)[nH]c(-c3ccccc3OC)nc12 | 140 to 141 |
| O=C1C(Br)=C(Br)C(=O)c2c(F)cccc21 | 100 |
| Cc1c(N2CC3(CC3)[C@](C)(N)C2)ccc2c(=O)c(C(=O)O)cn(C3CC3)c12 | 227 to 230 |
| O=C(C=C1CCCCN1)c1ccccc1 | 59 to 60 |
| CSc1cc(C)nc(SC)c1NC(=O)CSc1nc2cccc(C(F)(F)F)c2o1 | 207 to 209 |
| O=C(c1ccc(F)cc1)c1cccnc1C(=O)O | 152 to 153 |
| CC(C#N)(COc1cc(C#N)ccc1C(F)(F)F)NC(=O)c1ccc(SC(F)(F)F)cc1 (stereo not given) | 126 to 127 |
| CC(C)(C)OC(=O)c1ncn2c1C1CCCN1C(=O)c1ncccc1-2 (stereo not given) | 230 to 231 |
| CC(C)C(C)(C(N)=O)N1C(=O)c2cccnc2C1=O (stereo not given) | 176 to 178 |
| Ic1ccc(CCN2CCOCC2)cc1 | 64 to 67 |
| CCOc1nn(Cc2ccc(OCc3ccc(-c4ccccc4)cn3)cc2)cc1CCC(=O)O | 127 to 128 |
| N#Cc1ccc(OCCN2CCN(c3cc(Cl)nnc3Cl)CC2)cc1 | 175 to 177 |
| CCOC(=O)c1nc(CCl)n(-c2ccc(Br)cc2C(=O)c2ccccn2)n1 | 96 to 97 |
| ClCc1nc(Cl)c2ccsc2n1 | 66 to 68 |
| O=C(O)Cn1c(-c2cccc(F)c2)nc2cccnc21 | 243 to 245 |
| COC(=O)C(C)(C)OCc1cc2cc(C(F)(F)F)ccc2n1S(=O)(=O)c1cccc2nc(C)sc12 | 118 to 120 |
| CCCOc1ccc(C(=O)O)c(OCc2ccc(OCCc3nc(-c4ccccc4)oc3C)cc2)c1 | 108 to 109 |
| COc1ccc(S)c(-n2c(=O)[nH]cc(C(=O)O)c2=O)c1 | 277 to 278 |
| O=C(O)COc1c[nH]c(CCl)cc1=O | 150 to 155 |
| CC(Oc1ccc(OCc2ccccc2)cc1)C(=O)N(C)C#N (stereo not given) | 56 to 58 |

| Compound | melting point [°C] |
| --- | --- |
| Cc1cccc(N2CCCC2=O)c1CNc1cccn2c(C)c(C)nc12 | 138 to 141 |
| CC1CN(C(=O)c2ccc(Cl)cc2Cl)c2ccc(Cl)cc2C1=O (stereo not given) | 157 to 159 |
| CCCCOc1ccc(CC(CC(=O)NO)S(=O)(=O)c2ccc(OC)cc2)cc1 (stereo not given) | 55 to 60 |
| Cc1cc(N2CCN(C(=O)OC(C)(C)C)CC2)ccc1[N+](=O)[O-] | 145 to 146 |
| CCC(=O)N(C)c1c(C(=O)c2cccc(Cl)c2)[nH]c2cc(Cl)ccc12 | 194 to 195 |
| COC(=O)c1ccc2c(c1)C(SCCO)c1ccccc1CO2 (stereo not given) | 128 to 130 |
| O=C(OCCN1CCN(c2ccc(Cl)cc2)CC1)c1sccc1Nc1ccnc2c(C(F)(F)F)cccc12 | 155 |
| CC1(C)c2ccc(CCN3CCN(c4noc5ccccc45)CC3)cc2C(C)(C)C1NS(C)(=O)=O (stereo not given) | 75 to 80 |
| C#CCCn1nnc2cc3c(=O)n(C(C)Cn4cnnn4)nnc3cc2c1=O (stereo not given) | 201 to 204 |
| Cc1ccc2c(c1)C(=O)N(CC(=O)N1c3ccccc3N(Cc3ccccc3)C(=O)[C@H]3CCC[C@H]31)C2=O (relative stereo) | 237 to 238 |
| CNC(=O)NC1OCC(OC(C)=O)C(OC(C)=O)C1OC(C)=O (stereo not given) | 170 to 172 |
| Cc1csc(-c2cc(C)cn2-c2ccc(S(N)(=O)=O)cc2)c1 | 172 to 173 |
| Cn1c(COc2ccc(CC3SC(=O)NC3=O)cc2)nc2ccc(Oc3ccc(NC(=O)c4ccc(F)cc4F)cc3)cc21 (stereo not given) | 172 to 174 |
| COc1ccnc2c1c(C(C)=O)cn2S(=O)(=O)c1ccccc1 | 156 to 158 |
| O=C(Nc1cccc(C(F)(F)F)c1)c1ccccc1O | 188 to 191 |
| CCCCCS(=O)(=O)NC(=O)/C=C/c1cc(OCC2(C)COC2)nn1Cc1ccc(C(F)(F)F)cc1Cl | 144 to 147 |
| CCOc1ccccc1C=[N+]([O-])C1CCCC1 | 87.3 |
| CCCC(C(=O)O)n1c(=O)c(=O)[nH]c2ccccc21 (stereo not given) | 272 to 275 |
| COc1cc2c(cc1OC)CN(C(=O)Cc1ccc([N+](=O)[O-])cc1)CC2 | 110 to 111 |

Continued, values first:

| melting point [°C] | Compound |
| --- | --- |
| 239 to 242 | Cc1nc(-c2cc(Cl)ccc2Cl)n2c1nnc1ccc(N3CCOCC3)cc12 |
| 185 to 186 | NS(=O)(=O)c1ccc(-n2nc(CCCNC(=O)Nc3ccc(C(F)(F)F)cc3)cc2-c2ccccc2)cc1 |
| 228 to 230 | C[C@@H]1Cc2cc(N3C[C@H](C(N)=O)OC3=O)ccc2N1C=O |
| 181 to 183 | Cn1ncnc1COc1nn2c(-c3ccccc3F)nncc2c1-c1cccnc1 |
| 122 to 123 | COc1cc(COc2cc(/C=C/c3ccccn3)n(-c3ccccc3)n2)ccc1OCc1nc(-c2ccco2)oc1C |
| 108 to 109 | CCC(=O)n1nc(-c2ccc(Cl)cc2)nc1C |
| 130 to 131 | O=C(NN=CC(F)(F)C(F)(F)F)c1nc(Oc2cccc(C(F)(F)F)c2)ccc1Cl |
| 276 to 277 | Cn1cc(Br)nc(Nc2ccc(C(=O)N3CCOCC3)cc2)c1=O |
| 193 to 195 | CSc1sc(-c2ccn(S(C)(=O)=O)n2)c2c1C(=O)CC(C)(C)C2 |
| 132 to 134 | C=CCn1c(=O)c(C(=O)OCC)c(N)c2ccccc21 |
| 94 to 95 | CCOC(=S)SCCC(=O)N1CCC[C@H]1C(=O)O |
| 290 to 291 | Cc1[nH]n(Cc2cc([N+](=O)[O-])ccc2Cl)c2nc(-c3ccncc3)nc(=O)c1-2 |
| 229 to 230 | CC(=O)Nc1ccc2c3c(oc2c1)CC(C(=O)O)CC3 (stereo not given) |
| 68 to 69 | CCCCn1c(=Nc2ccccc2)sc2ncccc2c1=O |
| 95 | Fc1ccc(C(c2ccc(F)cc2)c2cc(Cl)cc(Cl)c2S)cc1 |
| 132 to 133 | CCCCCCCCNC(=O)Nc1ccc(Nc2ccc(N(CC)CCNS(C)(=O)=O)cc2C)c2ccccc12 |
| 165 to 168 | COc1ccccc1NC(=O)Nc1ccc(CC(=O)O)cc1 |
| 116 | O=C1c2ccccc2C(=O)N1CCCCOc1cccc2c1SCCC2 |
| 201 to 203 | COc1ccc2c(c1)Sc1c(cc(OC)c(OC(C)=O)c1Br)N2 |
| 148 | Nc1cc(=O)n(Cc2ccc(F)cc2)[nH]1 |

| melting point [°C] | Compound |
| --- | --- |
| 35 to 36 | CCSC(=O)CCS(=O)(=O)CC |
| 72.5 to 73.5 | O=S(=O)(CCCl)c1ccc(O)cc1 |
| 93 to 96 | CS(=O)(=O)c1ccc(-c2cnn(Cc3cc4ccccc4s3)c(=O)c2-c2ccc(F)cc2)cc1 |
| 137 | CCCc1nc2ccnn2c(Cl)c1Cc1ccc(-c2ccccc2C#N)cc1 |
| 25 to 27 | CCCCCCCCCCCCCCCCSCC(C)(CO)C(=O)OC (stereo not given) |
| 218 to 219 | CC(C)(C)c1cc(NC(=O)c2cccn2-c2ccc(N)cc2)cc(C(C)(C)C)c1O |
| 164 to 165 | Cc1cc(OCc2ccc(-c3ccc(C(F)(F)F)cc3)nc2C)ccc1OC(C)(C)C(=O)O |
| 113 to 115 | N#CC1=C(Nc2cc(F)cc(F)c2)CCC1 |
| 57 | CCOC(=O)C1=C(N2CCCC2)N=C(C)C(C(=O)OCC)C1c1ccccc1 (stereo not given) |
| 106 to 107 | Cn1ncc(Cl)c(N)c1=O |
| > 200 | COc1cc2c(cc1C(F)(F)F)N(C(=O)Nc1csc(-c3cccnc3)n1)CC2 |
| 193 to 196 | CCOC(=O)[C@@H]1CSCCCCCCCC(CSC(C)=O)C(=O)N1 (stereo not given in full) |
| 253 to 255 | Nc1nc(N)nc(-c2ccc(S(=O)c3ccccc3)cc2)n1 (stereo not given) |
| 111 to 112 | CCC(C(C)C)C1OC1C(C)C1CCC2C3CCC4=CC(=O)CCC4(C)C3CCC12C (stereo not given) |
| 220 to 222 | O=C(O)C(Cc1ccc(Cl)cc1Cl)c1c(Cl)cccc1Cl (stereo not given) |
| 242 to 244 | Cc1cc(S(=O)(=O)O)ccc1OCc1ccccc1C(=O)O |
| 128 | CCC1(COc2ccc(C(=O)O)cc2)COC1 |
| 97 to 99 | C=CCNC(=O)N1CC(OCc2ccc(F)cc2)C1 |
| 266 | Cn1c(=O)c(C#N)c(N2CCN(C(=O)c3cccs3)CC2)c2cccnc21 |
